# Source: article PMC8347709 (International Journal of Molecular Sciences, 2021)
# Experiments:
# [1] = stability of the formulated product; type: physicochemical; conditions: in saline, within 24 h at room temperature
# Protocol: The purification of the product was performed by semipreparative HPLC (Figure 3), followed by trapping on a Sep-Pack C18-light cartridge and elution with EtOH. For biological experiments, the solvent was evaporated under a stream of nitrogen at 70 °C until a volume of about 20–30 µL remained. The product was formulated by using 280 µL saline (0.9% aqueous NaCl). The total synthesis time was about 70 min. […] A logD7.4 of 3.15 ± 0.25 was determined by the shake flask method, which is in accordance with the calculated cLogP of 3.0 (ChemDraw Professional 19.0).
# [2] = molecular target: T1, CB2R expression in the spleen (Rattus norvegicus, UniProt Q9QZN9); assay: dynamic PET/MR of spleen uptake in healthy rats; type: in vivo, Wistar rats; conditions: single blocking experiment, GW405833 1.5 mg/kg i.v. 10 min prior tracer
# T1 construct: from tissue; host or cells: spleen of living male Wistar Hun rats (in vivo PET)
# T1 sequence (Q9QZN9 1-360): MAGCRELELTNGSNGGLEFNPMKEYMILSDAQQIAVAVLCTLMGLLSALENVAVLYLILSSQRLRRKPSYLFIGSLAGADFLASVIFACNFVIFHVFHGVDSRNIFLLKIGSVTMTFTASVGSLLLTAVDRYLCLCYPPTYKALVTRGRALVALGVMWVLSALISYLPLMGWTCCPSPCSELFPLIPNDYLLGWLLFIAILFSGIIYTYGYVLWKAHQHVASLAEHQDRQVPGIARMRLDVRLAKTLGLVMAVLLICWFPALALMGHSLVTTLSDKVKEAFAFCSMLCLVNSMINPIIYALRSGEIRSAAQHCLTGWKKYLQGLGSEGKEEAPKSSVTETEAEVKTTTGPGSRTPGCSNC
# Excerpt: For the uptake studies into the spleen three male Wistar Hun rats (Janvier Laboratories, Le Genest Saint Isle, France) weighing 268 ± 56 g were used. For the uptake studies into the brain, five female Wistar rats weighing 263 ± 13 g carrying the stereotactically injected AAV 2/7-CaMKII0.4-intron-hCB2R D80N (right striatum) and AAV2/7-CaMKII0.4-intron-3flag-eGFP (contralateral, left striatum). Animals were initially anaesthetised with 5% isoflurane and placed on a thermostatically heated animal bed where anaesthesia was maintained with 2% isoflurane in 60% oxygen/38% room air. […] List-mode PET data were binned as a series of attenuation-corrected sinogram frames (12 × 10 s, 6 × 30 s, 5 × 60 s and 10 × 300 s) and were reconstructed by ordered subset expectation maximisation (OSEM3D) with four iterations, six subsets and a voxel size of 0.4 mm^3 (Nucline v2.01, Mediso, Hungary). […] Non-parametrical analyses of achieved time-activity curves (TACs) were performed with Microsoft Excel to determine the time to peak, the TAC peak value and the area-under-the-zero-momentum curve (AUC):(1) AUC0−tx=∫0txcradioactivity × dt where c (radioactivity) is expressed as a standardised uptake value normalised to the bodyweight in g (SUV), the area-under-first-momentum curve (AUMC):(2) AUMC0−tx=∫0txt × cradioactivity × dt and the mean residence time (MRT):(3) MRT=AUMC0−tx/AUC0−tx […]
# hCB2R = hCB2R (Homo sapiens, UniProt P34972); assay: homologous competition with [18F]LU14 on hCB2R-CHO cell membrane homogenates; type: binding; set-up: host or cells: CHO cells, stably transfected
# Chain of hCB2R (P34972 whole entry): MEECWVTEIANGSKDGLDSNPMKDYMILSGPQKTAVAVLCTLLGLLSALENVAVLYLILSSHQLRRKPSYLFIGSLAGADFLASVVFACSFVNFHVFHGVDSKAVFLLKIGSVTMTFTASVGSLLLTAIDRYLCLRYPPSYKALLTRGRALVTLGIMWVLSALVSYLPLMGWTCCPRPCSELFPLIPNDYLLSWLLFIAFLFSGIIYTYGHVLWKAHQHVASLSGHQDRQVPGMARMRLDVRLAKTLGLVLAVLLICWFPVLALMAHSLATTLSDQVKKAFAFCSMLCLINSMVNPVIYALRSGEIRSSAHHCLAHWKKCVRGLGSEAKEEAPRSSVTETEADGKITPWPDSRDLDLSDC
# Protocol: A value of 2.9 nM was experimentally determined. Next, the in vitro evaluation by autoradiography on spleen tissue was performed (Supplementary Figure S1), as the spleen is regarded as a suitable reference organ, having high densities of CB2R (rat spleen CB2R Bmax = 0.71 pmol/mg).
# The inhibition curve was obtained by non-linear regression of percent specific binding (mean ±SD; one experiment run in triplicate) plotted versus the log concentration of the test compound.
structure (smiles),measurement,setting,value
C[C@H]1CC[C@@H](NC(=O)c2cc3cccnc3n(CCCC[18F])c2=O)CC1 [[^18F]LU14],decomposition of the formulated product,[1],No decomposition
same,"AUC0–60min in the spleen, blocking versus control",[2],comparable
same,Kd,hCB2R,2.9 nM
